{
  "source": "patent US20250325529A1",
  "about": "“INHIBITORS OF FATTY ACID BINDING PROTEINS (FABPs), METHODS OF USE AND METHODS OF MAKING” (Celloram, inc., priority 2024, published 2025)",
  "key": {"[1]": {"system": "normal human mammary epithelial cells (HMEC)", "assay": "Proliferation assay (Incucyte confluency), HMEC", "format": "cell-based", "protocol": "(§1) COS-7, MDA-MB-231, and HepG2, were cultured in Dulbecco's modified Eagle's medium (DMEM) supplemented with 10% fetal bovine serum (Invitrogen Life Sciences, Carlsbad, CA). BT-549, OVCAR5 and OVCAR8 cells were cultured in L-Glutamine containing RPMI medium supplemented with 10% fetal calf serum (Invitrogen Life Sciences, Carlsbad, CA). The primary Human Mammary Epithelial Cells (HMEC) were cultured in mammary epithelial cell complete medium (basal medium plus rH-Insulin (5 μg/mL); L-Glutamine (6 mM); Epinephrine (1 μM); Apo-Transferrin (5 μg/mL); rH-TGF-α (0.5 ng/mL); ExtractP (0.4%); Hydrocortisone Hemisuccinate (100 ng/mL)).\n(§2) 2000 cells were plated in each well of 96-well plate. The next day cells were treated with compounds and incubated in Incucyte for 4 days. Images taken every 4 hours for the duration of the time were analyzed to calculate percentage of confluency in response to the treatments. Growth inhibition was calculated as 1—(percentage of viable cells out of untreated cells)."}, "BT-549 cells": {"system": "BT-549 cells", "assay": "Proliferation assay (Incucyte confluency), BT-549", "format": "cell-based", "conditions": "Homo sapiens, 96 h, 4 days, read-out: IC50, inhibition of proliferation", "protocol": "as §1, §2"}, "PPARα": {"target": "PPARα (Homo sapiens (Human), UniProt Q07869)", "sequence (Q07869 whole entry, species assumed)": "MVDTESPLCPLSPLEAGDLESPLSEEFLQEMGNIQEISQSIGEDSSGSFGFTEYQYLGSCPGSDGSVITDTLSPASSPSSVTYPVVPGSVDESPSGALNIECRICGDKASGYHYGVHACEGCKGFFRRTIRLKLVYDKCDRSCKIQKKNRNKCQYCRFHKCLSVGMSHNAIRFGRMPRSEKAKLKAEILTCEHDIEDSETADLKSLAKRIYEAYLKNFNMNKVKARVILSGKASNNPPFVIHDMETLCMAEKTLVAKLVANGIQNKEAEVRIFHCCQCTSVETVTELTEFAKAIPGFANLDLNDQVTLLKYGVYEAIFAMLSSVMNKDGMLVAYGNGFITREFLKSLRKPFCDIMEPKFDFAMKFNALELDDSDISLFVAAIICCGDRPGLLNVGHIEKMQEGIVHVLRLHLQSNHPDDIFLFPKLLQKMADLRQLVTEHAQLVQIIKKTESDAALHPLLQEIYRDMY", "assay": "Transcriptional activation assay in COS7 cells, PPARα", "format": "cell-based", "conditions": "PPRE luciferase reporter, PD151 and PD152 at 10 μM", "protocol": "COS-7 were cultured in 6-well plates and co-transfected with either a luciferase reporter driven by 3 copies of a PPRE and expression vector for either PPARδ, PPARα or PPARγ together with a vector harboring cDNA for β-galactosidase, serving as a transfection control. To test whether FABP4 or FABP5 mediate activation of their cognate receptors PPARγ and PPARδ, respectively, cells were also co-transfected with a plasmid harboring sequence of either FABP4 or FABP5. 18 h post-transfection, cells were placed in a serum-free medium and treated with agonist/compound. 18 h. later, cells were lysed, luciferase activity was assayed (Promega, WI, USA) and corrected for transfection efficiency by the activity of β-galactosidase.\nTranscriptional activation assays were carried out utilizing COS7 cells as described above."}, "[2]": {"system": "NOD mouse model of autoimmune type 1 diabetes", "assay": "NOD mouse model of autoimmune type 1 diabetes", "format": "in vivo, NOD/ShiLtJ mice", "conditions": "female NOD mice", "protocol": "Female NOD/ShiLtJ mice were purchased from Jackson's lab at age of 7 weeks. Mice were housed in a temperature-controlled facility (23° C., 12-h light/dark cycle). Weekly non-fasting blood glucose concentrations were measured in the morning by tail vein prick starting at 8 weeks of age by using a blood glucose test meter (OTUltra2 system, Lifescam, USA) and strips according to manufacturer's instruction. Any reading of blood glucose higher than 200 mg/dL was confirmed by another test 24 hours later. Diabetes was diagnosed by 2 consensus positive blood glucose tests higher than 200 mg/dL. At 13 weeks of age, mice were divided into 3 treatments groups (n=15/group) as followed: 1) control group, treated with vehicle (0.5% methyl cellulose, 1% Tween 80); 2) PD152 treated group (40 mg/Kg in vehicle); 3) anti-CD3 treated group (5 μg/mouse, in PBS). Groups 1 and 2 were treated by gavage 5 days a week throughout the duration of the experiment. Group 3 was treated by IV injection for only 5 consecutive days. Mice were sacrificed at the age of 27 weeks.\nNOD mouse model of autoimmune type 1 diabetes was used to test the efficacy of FABP4/5 inhibitor PD152 on spontaneous development of the disease. […] Blood glucose levels were measured weekly for monitoring the incidence of diabetes until termination at 27 weeks of age. […]"}, "[3]": {"system": "Salmonella typhimurium tester strain TA1537", "assay": "Ames test (Bacterial Reverse Mutation Test), TA1537", "format": "cell-based", "protocol": "PD152 (compound 2) was tested for genotoxic and cytotoxic side effects by Ames test. The Ames test is a Bacterial Reverse Mutation Test of mutagenicity that utilizes Salmonella typhimurium tester strains TA98, TA100, TA1535, TA1537 and Escherichia coli tester strain WP2 uvrA (pKM101), both in the presence and absence of S9.\nThe compound PD152 was tested at 10 concentrations (0.032-1000 μg/plate) in the presence of, or absence of, the hepatic enzyme S9.\nThe aniline FABP4/5 inhibitor compound, 2-((2-((2,4-dichloro-5-isopropoxyphenyl)amino)-2-oxoethyl)thio)-2-methylpropanoic acid (compound “B104” as disclosed in WO2023043803A1) also was tested for genotoxic and cytotoxic side effects by Ames test. […]"}, "[4]": {"conditions": "TA1537, absence of S9, 0.0312 μg/plate"}, "[5]": {"conditions": "TA1537, absence of S9, 0.1 μg/plate"}, "[6]": {"conditions": "TA1537, absence of S9, 0.316 μg/plate"}, "[7]": {"conditions": "TA1537, absence of S9, 1 μg/plate"}, "[8]": {"conditions": "TA1537, absence of S9, 3.16 μg/plate"}, "[9]": {"conditions": "TA1537, absence of S9, 10 μg/plate"}, "[10]": {"conditions": "TA1537, absence of S9, 31.6 μg/plate"}, "[11]": {"conditions": "TA1537, absence of S9, 100 μg/plate"}, "[12]": {"conditions": "TA1537, absence of S9, 316 μg/plate"}, "[13]": {"conditions": "TA1537, absence of S9, 1000 μg/plate"}, "[14]": {"conditions": "TA1537, presence of S9, 0.0312 μg/plate"}, "[15]": {"conditions": "TA1537, presence of S9, 0.1 μg/plate"}, "[16]": {"conditions": "TA1537, presence of S9, 0.316 μg/plate"}, "[17]": {"conditions": "TA1537, presence of S9, 1 μg/plate"}, "[18]": {"conditions": "TA1537, presence of S9, 3.16 μg/plate"}, "[19]": {"conditions": "TA1537, presence of S9, 10 μg/plate"}, "[20]": {"conditions": "TA1537, presence of S9, 31.6 μg/plate"}, "[21]": {"conditions": "TA1537, presence of S9, 100 μg/plate"}, "[22]": {"conditions": "TA1537, presence of S9, 316 μg/plate"}, "[23]": {"conditions": "TA1537, presence of S9, 1000 μg/plate"}},
  "note": "“Also recorded” adds a separate entry of the source.",
  "data": [
    {"smiles": "CC(C)Oc1nc(NC(=O)CSCC(=O)O)c(Cl)cc1Cl", "note": "[PD152, 2-((2-((3,5-dichloro-6-isopropoxypyridin-2-yl)amino)-2-oxoethyl)thio)acetic acid]", "values": [
      {"measurement": "Concentrations at which proliferation of HMEC cells was inhibited", "setting": "[1]; HMEC cells, 4 days", "result": "> 125", "unit": "µM"},
      {"measurement": "IC50", "setting": "[1]; Homo sapiens, 96 h, HMEC cells, 4 days, read-out: IC50, inhibition of proliferation", "result": 319, "unit": "µM"},
      {"measurement": "Fold lower efficacy in HMEC than in BT-549 cells", "setting": "[1]; IC50 HMEC vs BT-549", "result": 305, "unit": "fold"},
      {"measurement": "Fold lower efficacy in HMEC than in MB-231 cells", "setting": "[1]; IC50 HMEC vs MB-231", "result": 532, "unit": "fold"},
      {"measurement": "IC50", "setting": "BT-549 cells", "result": 1.04, "unit": "µM"},
      {"measurement": "Activation of transcription by PPARα", "setting": "PPARα", "result": "None of these tested compounds activated; also recorded: none of the tested compounds PD151 and PD152 activated transcription"},
      {"measurement": "Diabetes incidence", "setting": "[2]; 40 mg/Kg by gavage 5 days a week from 13 weeks, by 27 weeks of age", "result": 46.7, "unit": "%"},
      {"measurement": "Lower blood glucose levels, difference to control", "setting": "[2]; at 27 weeks of age", "result": "about 2 fold"},
      {"measurement": "Fold increase", "setting": "[3]; [4]", "result": 1},
      {"measurement": "Mean number of revertants", "setting": "[3]; [4]", "result": 3},
      {"measurement": "Fold increase", "setting": "[3]; [5]", "result": 1},
      {"measurement": "Mean number of revertants", "setting": "[3]; [5]", "result": 3},
      {"measurement": "Fold increase", "setting": "[3]; [6]", "result": 1},
      {"measurement": "Mean number of revertants", "setting": "[3]; [6]", "result": 4},
      {"measurement": "Fold increase", "setting": "[3]; [7]", "result": 1},
      {"measurement": "Mean number of revertants", "setting": "[3]; [7]", "result": 3},
      {"measurement": "Fold increase", "setting": "[3]; [8]", "result": 1},
      {"measurement": "Mean number of revertants", "setting": "[3]; [8]", "result": 3},
      {"measurement": "Fold increase", "setting": "[3]; [9]", "result": 1},
      {"measurement": "Mean number of revertants", "setting": "[3]; [9]", "result": 3},
      {"measurement": "Fold increase", "setting": "[3]; [10]", "result": 1},
      {"measurement": "Mean number of revertants", "setting": "[3]; [10]", "result": 4},
      {"measurement": "Fold increase", "setting": "[3]; [11]", "result": 1},
      {"measurement": "Mean number of revertants", "setting": "[3]; [11]", "result": 3},
      {"measurement": "Fold increase", "setting": "[3]; [12]", "result": 1},
      {"measurement": "Mean number of revertants", "setting": "[3]; [12]", "result": 3},
      {"measurement": "Fold increase", "setting": "[3]; [13]", "result": 1},
      {"measurement": "Mean number of revertants", "setting": "[3]; [13]", "result": 3},
      {"measurement": "Fold increase", "setting": "[3]; [14]", "result": 1},
      {"measurement": "Mean number of revertants", "setting": "[3]; [14]", "result": 4},
      {"measurement": "Fold increase", "setting": "[3]; [15]", "result": 1},
      {"measurement": "Mean number of revertants", "setting": "[3]; [15]", "result": 3},
      {"measurement": "Fold increase", "setting": "[3]; [16]", "result": 1},
      {"measurement": "Mean number of revertants", "setting": "[3]; [16]", "result": 3},
      {"measurement": "Fold increase", "setting": "[3]; [17]", "result": 1},
      {"measurement": "Mean number of revertants", "setting": "[3]; [17]", "result": 3},
      {"measurement": "Fold increase", "setting": "[3]; [18]", "result": 1},
      {"measurement": "Mean number of revertants", "setting": "[3]; [18]", "result": 3},
      {"measurement": "Fold increase", "setting": "[3]; [19]", "result": 1},
      {"measurement": "Mean number of revertants", "setting": "[3]; [19]", "result": 4},
      {"measurement": "Fold increase", "setting": "[3]; [20]", "result": 1},
      {"measurement": "Mean number of revertants", "setting": "[3]; [20]", "result": 3},
      {"measurement": "Fold increase", "setting": "[3]; [21]", "result": 1},
      {"measurement": "Mean number of revertants", "setting": "[3]; [21]", "result": 3},
      {"measurement": "Fold increase", "setting": "[3]; [22]", "result": 1},
      {"measurement": "Mean number of revertants", "setting": "[3]; [22]", "result": 4},
      {"measurement": "Fold increase", "setting": "[3]; [23]", "result": 1},
      {"measurement": "Mean number of revertants", "setting": "[3]; [23]", "result": 4}
    ]}
  ]
}
